This is an account of results in PubChem BioAssay (NCI).

Common to all, as to assay: NCI anticancer screen, dose series, 48 h
For assay [1], the system named is EKVX NSCLC.
Assay [2] relates to HCC-2998 colon.
The test system of assay [3] is M14 melanoma.
Assay [4] concerns NCI-H23 lung.
The test system of assay [5] is OVCAR-5 ovarian.
In assay [6] the test system is SF-539 CNS.
Assay [7] concerns SK-MEL-5 melanoma.
Assay [8] has as its system SNB-75 CNS.
The subject of assay [9] is UO-31 renal.
The subject of assay [10] is HS 578T breast.

SMILES strings stand for the structures.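 Method: 48-hour compound exposure of cells in 96-well plates, five concentrations, linear interpolation of endpoints. TGI: total growth inhibition.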 Some results are limits rather than exact numbers.

For `CCOC(=O)c1csc(NC(=O)CCN2CCCC2)n1`, the TGI in [1], in assay [2], in assay [3], in assay [4], in assay [5] and in assay [6] was above 100 µM each time. Moreover, the TGI in [7], in assay [8] and in assay [9] was above 100 µM throughout.

`COc1ccc(C(=O)/C=C/SC(=NC#N)SC)cc1`: the TGI in [1] is above 100 µM; in [10] it was 68.3 µM; in [3], 35.1 µM; in assay [4], 33.2 µM; in assay [5], 47.1 µM; in assay [6], 45.7 µM. For the same molecule, the TGI in assay [7] came out at 39 µM; in assay [8] it was 89.2 µM; in assay [9], 37.4 µM.

Turning to `CN(C)CCCNC(=O)N/N=C/c1ccccc1`, the TGI in assay [6], in assay [7], in assay [8] and in assay [9] was above 100 µM throughout.

Turning to `O=c1c2ccc(Cl)cc2oc2c(CNc3ccc(S(=O)(=O)Nc4ncccn4)cc3)cccc12`, the TGI in assay [1], in [2], in assay [3], in assay [4], in [5] and in assay [6] was above 100 µM each time. In addition, the TGI in assay [7], in assay [8] and in assay [9] was above 100 µM in each case.

Take `CC[C@]12C=CCN3CCC4(c5cc([C@@]6(C(=O)OC)CC7CN(CCc8c6[nH]c6ccccc86)CC6CCCCC67)c(OC)cc5N(C)C4[C@](O)(C(=O)OC)C1OC(C)=O)[C@@H]32` (stereo partly drawn): the TGI in [1] is 21.7 µM; in [2], below 0.01 µM; in assay [10], below 0.01 µM; in assay [3] it was 1.35 µM; in assay [4], below 0.01 µM; in [5], 0.0926 µM. In addition, the TGI in [6] is below 0.01 µM; in assay [7] it was 1.53 µM; in [9], 7.31 µM.

Turning to `CCOC(=O)c1csc(NC(=O)CCN2CCN(C)CC2)n1`, the TGI in assay [2], in [10], in assay [3], in assay [4], in [5] and in [6] was above 100 µM in each case. Further, the TGI in [7], in assay [8] and in assay [9] was above 100 µM throughout.

In the case of `CCOC(=O)c1c(SCc2cc(=O)[nH]c(=O)[nH]2)n(-c2ccccc2)c(=S)n(-c2ccccc2)c1=O`, the TGI in [1], in assay [2], in assay [3], in assay [5], in [6] and in assay [7] was above 100 µM in each case. The TGI in [8] and in assay [9] was above 100 µM each time.

As for `O=c1c2c3c(sc2nc2n1N=C(c1ccc(Br)cc1)CS2)CCCC3`, the TGI in [1], in assay [2], in assay [3], in assay [4], in [5] and in [6] was above 100 µM in each case. In addition, the TGI in assay [8] and in [9] was above 100 µM each time.

For the molecule `CC(=O)/C(=N\Nc1ccc(Cl)cc1)C(C)=Nc1ccc(C)cc1`, the TGI was above 100 µM in assay [1]; above 100 µM in assay [10]; 58 µM in [3]; above 100 µM in assay [4]; above 100 µM in [5]; 38.8 µM in [7]. The TGI in [8] and in [9] was above 100 µM throughout.

Take `CC[C@H](NC(=O)OC(C)(C)C)C(=O)NCP(=O)(OCc1ccc([N+](=O)[O-])cc1)OCc1ccc([N+](=O)[O-])cc1`: the TGI in [2] is above 100 µM; in assay [10], above 100 µM; in assay [3], above 100 µM; in [4] it was above 100 µM; in [5], above 100 µM; in [6], 90 µM. Moreover, the results for the TGI in assay [7], in assay [8] and in assay [9] were 26.4 µM, above 100 µM and 80.2 µM, respectively.

Regarding `CCn1ncc2c(=O)n3ncn(-c4ccc(Br)cc4)c3nc21`, the TGI in [1], in assay [2], in [10], in [3], in [4] and in assay [5] was above 100 µM in each case. For the same molecule, the TGI in assay [7], in [8] and in assay [9] was above 100 µM throughout.

Take `O=C(C(=C(I)I)c1ccccc1)c1ccccc1`: the TGI in assay [1] is above 100 µM; in assay [10] it was 43.2 µM; in [3] it was 73.3 µM; in assay [4], 88.8 µM; in [5], above 100 µM; in assay [6], 52.6 µM. In addition, the TGI is 30.9 µM in assay [7] and 58.8 µM in assay [9].

Turning to `CCCCNC(=O)Cn1c2ccc(Br)cc2c2nc3ccccc3nc21`, the TGI in [10], in assay [3], in [4], in assay [5], in assay [7] and in [8] was above 100 µM each time. The molecule further showed a TGI in assay [9] above 100 µM.

For `CN1c2ccccc2C2=C(c3ccccc3)CC[C@@H](C(=O)N3C4CC5CC[C@@]4(CS3(=O)=O)C5(C)C)[C@@H]21` (stereo partly drawn), the TGI in assay [1], in [10], in assay [3], in assay [4], in [5] and in assay [6] was above 100 µM in each case. The TGI in [7], in assay [8] and in assay [9] was above 100 µM each time.

As to `COc1cc(N=Nc2ccc(OC)c(S(=O)(=O)O)c2)c(C)cc1N=Nc1ccc(/C=C/c2ccc(N=[N+]([O-])c3ccc(/C=C/c4ccc(N=Nc5cc(C)c(N=Nc6ccc(OC)c(S(=O)(=O)O)c6)cc5OC)cc4S(=O)(=O)O)c(S(=O)(=O)O)c3)cc2S(=O)(=O)O)c(S(=O)(=O)O)c1`, the TGI in assay [1], in assay [2], in assay [4], in assay [5], in assay [6] and in [7] was above 100 µM throughout. The TGI in assay [8] and in [9] was above 100 µM throughout.
